Assays:
[1] = system: STZ-induced diabetic mice; assay: Vascular abnormalities (FITC-BSA hemorrhaging areas) in the retina of STZ-induced diabetic mice; type: in vivo, mouse; details: 200 μM eye drop three times a day for 14 days, vehicle control 8.2±1.5
Method: Diabetic mice were generated by intraperitoneal injection of streptozotocin (STZ; 200 mg/kg body weight) at day 1 and day 3. STZ was freshly prepared in 0.1 M citrate buffer (pH 4.5). After injection, mice were supplied with 10% sucrose overnight to prevent sudden hypoglycaemic shock. After 1 week (day 7), mice with non-fasting blood glucose levels >500 mg/dl were defined as diabetic and used for the experiments. Balanced salt solution (BSS) was served as peptide vehicle (Alcon, Novartis). 6-mer analogues (dissolved in BSS to 200 μM) eye drop were topically administered to eyes three times a day. After 2 weeks (day 14), mice were intraperitoneal injection of 100 mg/kg of FITC-BSA for further 30 min to determine vascular lesions (hemorrhaging areas) in retina. Subsequently, the animals were euthanized by CO2 inhalation, and the eyes were enucleated and fixed with 4% PFA for overnight at 4° Cand flat-mounted onto glass slides to obtain optical sections. Vascular lesions in the retina was scored in all four retinal quadrants of flat mounts by an epifluorescence microscopy at 200×. Three microscopic fields were sampled in each quadrant in both the central and peripheral retina, and data were presented as the average number of lesions/retina.
Microscopic appearance of degenerate capillaries in the I/R-induced retina are similar to that of acellular capillaries found in diabetic retinopathy. […]

IL-1β mRNA = assay: Hyperosmotic stress-induced IL-1β gene expression in rabbit corneal epithelial cells (qPCR); type: cell-based; details: 20 μM peptide 6 h, then hyperosmotic medium (463 mOsM) 3 h, solvent 4.5-fold
Method: Total RNA was extracted from cells using TRIzol (Invitrogen). Synthesis of cDNA was performed with 1 μg of total RNA at 50° C. for 50 min using oligo(dT) primers and reverse transcriptase (Superscript III; Invitrogen). Briefly, quantification of cDNA was performed in the LightCycler (Roche, Mannheim, Germany) using the DNA Master SYBR Green I kit (Roche) with the following cycling conditions: initial denaturation at 95° C. for 10 min, followed by 40 cycles at 95° C. for 10 s, 60° C. for 10 s, and 72° C. for 10 s and a 5-min terminal incubation at 72° C. The data were calculated with AACt. The expression was then normalized against the expression of glyceraldehyde-3-phosphate dehydrogenase (GAPDH). The PCR primers were mouse Survivin sense, 5′-[…]-3′ (SEQ ID NO: 27), anti-sense, 5′-[…]-3′ (SEQ ID NO: 28) (accession number: NM_001012273.1; PCR product: 136 bp); mouse GAPDH sense, 5′-[…]-3′ (SEQ ID NO: 29), anti-sense, 5′-[…]-3′ (SEQ ID NO: 30) (NM_001289726.1; 149 bp). For analysis rabbit inflammatory gene expression, The PCR primers were rabbit TNF-αsense, 5′-[…]-3′ (SEQ ID NO: 31), anti-sense, 5′-[…]-3′ (SEQ ID NO: 32) (accession number: NM 001082263.1); rabbit IL-1βsense, 5′-[…]-3′(SEQ ID NO: 33), anti-sense, 5′-[…]-3′ (SEQ ID NO: 34) (NM 001082201.1); rabbit GAPDH sense, 5′-[…]-3′ (SEQ ID NO: 35), anti-sense, 5′-[…]-3′ (SEQ ID NO: 36) (accession number:NM 001082253.1). The cycle threshold (Ct) values of the PCR product and a GAPDH (Glyceraldehyde 3-phosphate dehydrogenase) control mRNA were used to calculate relative quantities of mRNA.
Limbal stem epithelial cells (LSEC) were isolated from 6-month-old New Zealand white rabbits and continuously cultivated for 14 days byDMEM/F-12basalmedium based cell-suspension culture to achieve corneal-liked epithelial cell differentiation as previously described (Ho et al., Stem Cells. 2013; 31:1775). […] After 3 h, quantitative real-time PCR was used to estimate HOP-induced Tumor necrosis factor (TNF)-α and nterleukin-1 beta (IL-1β) expressions. […]

Neuro-2a cells = assay: Glutamate-induced Neuro-2a cell death (LDH release); type: cell-based, mouse
Method: Neuro-2a cells were seeded in 48-well culture plates (1.5×10^5 cells/well) for 24 h, and then cultured in 0.5 ml fresh 2% FBS-DMEM medium containing 20 μM of the present peptide (7 μg of 6-mer in 0.5 ml medium) for further 4 h. Subsequently, 100 mM glutamate (from 1 M stock and PBS as solvent) was added to cells for further 6 h. Glutamate-induced cell death was quantitatively assessed by measuring lactate dehydrogenase (LDH) activity released into the culture medium by damaged cells. LDH activity was measured using PicoProbe™ LDH-Cytotoxicity Fluorometric Assay Kit (Catalog #K314-500; BioVision) according to the instruction manuals. LDH activity was estimated using an automated microplate reader (UVmax; Molecular Devices, San Francisco, CA) by measuring the fluorescent product (Ex/Em=535/587 nm).
Briefly, cells were pretreated with the designated peptide (i.e., any of SEQ ID NOs: 2 to 11) for 4 h and then treated with 100 mM glutamate for 6 h. The cell death was detected by a commercial lactate dehydrogenase (LDH) Cytotoxicity Assay Kit. Results are depicted in FIG. 1.

NH2-(D-Ser)-Leu-Gly-Ala-Glu-Gln-COOH (SLGAEQ; HELM PEPTIDE1{[dS].L.G.A.E.Q}$$$$V2.0; SMILES CC(C)C[C@H](NC(=O)[C@H](N)CO)C(=O)NCC(=O)N[C@@H](C)C(=O)N[C@@H](CCC(=O)O)C(=O)N[C@@H](CCC(N)=O)C(=O)O) [6-mer dS]
numbers of vascular lesions (hemorrhaging areas in a retina) [1]: 2.8±0.6 lesions/retina
mRNA expression of IL-1β, in words (IL-1β mRNA): apparently repressed the mRNA expression of TNF-α and IL-1β
glutamate-induced cell death (LDH release into the medium) (Neuro-2a cells; Neuro-2a cells, 20 μM peptide pretreatment 4 h, then 100 mM glutamate 6 h, solvent/glutamate control 7.6±0.8%): 1.5±0.5%
protective effect on Neuro-2a cells (neuroprotective activity), in words (Neuro-2a cells; glutamate-induced cell death): exhibited protective effect on Neuro-2a cells
